Data on one compound can be found in US20230381069A1, “TOPICAL COMPOSITIONS AND METHODS OF USING THEREOF” (OHIO STATE INNOVATION FOUNDATION, priority 2016, published 2023).

A short description of this series: Photolysis of thin films in petroleum jelly on quartz plates under a UV photolysis lamp. Type of series: physicochemical. As for the experimental part:
A UV photolysis lamp having a light flux of 320 mW equipped with a cutoff filter at 270-280 nm was used to evaluate the performance and stability of the sunscreen compositions prepared herein. With 3 min of exposure to the UV lamp (same position as sample, after the filter), a clear damage was observed on human skin. Typically, under hot sun, this sunburn process takes 30 min to an hour. Accordingly, the photolysis lamp used for analysis is considerably more intense than natural sunlight.
FIGS. 4A and 4B compare the stability of avobenzone dispersed in petroleum jelly with avobenzone encapsulated in encapsulated in zeolite nanoparticles (10% zeolite, 1% AB) dispersed in petroleum jelly.
FIG. 7 is a plot showing the long-term stability of avobenzone/nanozeolite formulations. The absorption spectra of a thin film of avobenzone encapsulated in zeolite nanoparticles (10% zeolite, 1% AB) dispersed in petroleum jelly on quartz plates was obtained following 0, 3, 5, and 12 hours of irradiation using a UV photolysis lamp.

The structures appear in SMILES notation.

As for `COc1ccc(C(=O)CC(=O)c2ccc(C(C)(C)C)cc2)cc1` [avobenzone], the “AB decomposition in the presence of 1% OMC (octinoxate)” value (petroleum jelly, photolysis for 4 hours, FIGS. 8A/8B) was “AB decomposition was observed after the first hour of photolysis”. In addition, for the setting “thin film in petroleum jelly, 0, 3, 5 and 12 hours of irradiation, FIG. 7”, the “degradation of avobenzone via UV spectroscopy (long-term stability)” value is “complete degradation of the avobenzone was observed within four hours”.
